Data published in patent US20170312219A1, “METHOD OF CONTRACEPTION” (Bayer Oy, priority 2008, published 2017).

Test system: adult cycling cynomolgus macaques
Test: animal model of intrauterine bleeding: IUS inserted in macaques, daily vaginal swabs scored for bleeding
Format: in vivo
Conditions: Group 1: IUS releasing 2 μg per day of levonorgestrel, 9 monkeys
Description: The effects of administering via an intrauterine system (IUS) levonorgestrel alone, or in combination with indomethacin, were tested in animal model of intrauterine bleeding. The study was conducted using three groups of adult cycling cynomolgus macaques. The macaques were monitored to record regular menstrual cycles. Scheduled (menses) and unscheduled uterine bleeding and spotting was assessed daily by vaginal swabs, and menstrual blood loss was quantified by vaginal tampons.
After about two menstrual cycles (about 60 days), the macaques were assigned to three separate groups and laparotomized on days 6-9 of the follicular phase. For each macaque, an IUS was inserted by hysterotomy into the uterine lumen and sutured in place. Group 1 included 9 monkeys that were given an IUS that released 2 μg per day of levonorgestrel. Group 2 included 8 monkeys that were given an IUS that released 2 μg per day of levonorgestrel and 10 μg per day of indomethacin. Group 3 included 7 monkeys that were given an IUS that released 2 μg per day of levonorgestrel and 30 μg per day of indomethacin.
The frequency and type of bleeding was assessed by daily vaginal swabs. FIGS. 9A-9B illustrate the results of the different types of bleedings. Gray-shaed cells represent positive swab or frank menses, which is the most heavy form of bleeding. Diagonal-lined cells represent light positive swab, which is an intermediated type of bleeding.
The gray-shaded cells that were assigned represent the heaviest form of bleeding were assigned a score of 2. The diagonal-lined cells represent an intermediate type of bleeding and were assigned a score of 1.
For evaluation of bleeding days, the first 7 days after insertion of the IUS were neglected, since the insertion procedure by surgery causes some bleeding that is unrelated to treatment effects. FIGS. 9A-9B include data for a period of 80 days after the IUS was inserted in each of the macaques.

[1] = 80 days after insertion, first 7 days neglected

C#C[C@]1(O)CC[C@H]2[C@@H]3CCC4=CC(=O)CC[C@@H]4[C@H]3CC[C@@]21CC [levonorgestrel]
average score for each of the macaques (heaviest bleeding = 2, intermediate = 1): 11.9
total score for all of the macaques (heaviest bleeding = 2, intermediate = 1): 107
average number of bleeding days per macaque [1]: 8.6 days
total number of bleeding days [1]: 77 days
